Format in all cases: cell-based
In series [1] the test system is LPS-induced nitric oxide (NO) production in RAW264.7 macrophages. Nature of the series: Inhibition of LPS-induced NO production in RAW264.7 macrophages (anti-inflammatory assay). To be noted: LPS-stimulated, read-out: IC50 (μM), anti-inflammatory activity against LPS-stimulated NO production. As to the method: All isolates were evaluated for their anti-inflammatory activities against LPS-induced NO production in RAW264.7 macrophages (Table 3). […] This experiment was conducted according the reported procedure.

Series [2] deals with RAW 264.7 macrophages. Nature of the series: Cytotoxicity (CC50) in RAW 264.7 macrophages. As for the experimental part:
(§1) This experiment was conducted according the reported procedure.

A short description of series [3]: Cytotoxicity (CC50) in RAW 264.7 macrophages. To be noted: mouse. As for the experimental part:
as §1

Setting [4] is: Mus musculus, RAW264.7, RAW 264.7 macrophages.

Read-outs that look alike come from different tables or passages of the source.

As a reminder, the IC50 is the concentration that gives 50% inhibition. As usually defined, the CC50 is the concentration at which the toxic effect on the cells reaches its halfway point.

On to `C=C(C)C1CCC(C)(O)C2CC(O)C(C)C2C1` [Compound 3, (1R,3S,4R,5R,7R,10R)-11(13)-en-3,10-dihydroxyguaiene], for which the IC50 in series [1] (RAW 264.7 macrophages) stood at 113 µM. This compound also had a CC50 in series [2] of more than 50 µM.

Consider `C[C@H]1C[C@H](O)[C@@H]2[C@H]1C[C@H]([C@@](C)(O)CO)CC[C@@]2(C)O` [Compound 10, (1S,2S,4S,5S,7R,10R)-guaiane-2,10,11,12-tetraol], for which the IC50 in series [1] (setting [4]) amounted to 150 µM. In series [3], this compound registered a CC50 of more than 50 µM.

Turning to `C[C@](O)(CO)[C@@H]1CC[C@@](C)(O)[C@@H]2CC[C@@](C)(O)[C@@H]2C1` [Compound 8, (1R,4R,5R,7R,10R)-4,10,11-trihydroxyguaiane], the IC50 in series [1] (setting [4]) was 166 µM. In series [3], this compound gave a CC50 of more than 50 µM.

As to `C[C@H]1CC[C@@H]2[C@H]1C[C@H]([C@@](C)(O)CO)C[C@@H](O)[C@@]2(C)O` [Compound 13, (1R,4S,5S,7S,9R,10S,11R)-guaiane-9,10,11,12-tetraol], the IC50 in series [1] (setting [4]) turned out to be 88.2 µM. The compound further registered a CC50 in series [3] of more than 50 µM.

Turning to `C=C(CO)[C@@H]1CC[C@@](C)(O)[C@H]2[C@@H](C1)[C@@H](C)C[C@@H]2O` [Compound 6, (1S,2S,4S,5S,7R,10R)-11(13)-en-2,10,12-trihydroxyguaiene], the IC50 in series [1] (setting [4]) came to 14.2 µM. In series [3], this compound had a CC50 of more than 50 µM.

`C[C@H]1CC[C@@H]2[C@H]1C[C@H]([C@](C)(O)CO)CC[C@@]2(C)O` [Compound 11, (1R,4S,5S,7R,10R,11S)-guaiane-10,11,12-triol]: the IC50 in series [1] (setting [4]) is 141 µM. The CC50 in series [3] was more than 50 µM.

Regarding `N=C(N)NN` [Aminoguanidine, aminoguanidine, reference compound], the IC50 in series [1] (RAW 264.7 macrophages) amounted to 23.4 µM. Further, the CC50 in series [2] was more than 50 µM.

With `C[C@H]1CC[C@@H]2[C@H]1C[C@H]([C@@H](C)C(=O)O)CC[C@@]2(C)O` [Compound 9, (1R,4S,5S,7R,10R,11R)-10-hydroxyguai-12-oic acid], the IC50 in series [1] (setting [4]) was 79.1 µM. The compound also returned a CC50 in series [3] of more than 50 µM.

With `CC(=O)OCC(C)(O)C1CCC(C)(O)C2C(O)CC(C)C2C1` [Compound 7, (1S,2S,4S,5S,7R,10R,11R)-12-acetyl-2,10,11-trihydroxyguaiane], the half-inhibitory concentration (IC50) in series [1] (setting [4]) is 101 µM. In series [3], the CC50 was more than 50 µM.

For `C=C(C)C1CCC(C)(O)C2C(O)CC(C)C2C1` [Compound 5, (1S,2S,4S,5S,7R,10R)-11(13)-en-2,10-dihydroxyguaiene], the IC50 in series [1] (setting [4]) is 138 µM. In series [3], this compound gave a CC50 of more than 50 µM.

On to `C=C(C)C1CCC(C)(O)C2CC(O)C(C)C2C1` [Compound 1, (1R,3R,4R,5S,7R,10R)-11(13)-en-3,10-dihydroxyguaiene], for which the IC50 in series [1] (RAW 264.7 macrophages) is 310 µM. This compound registered a CC50 in series [3] of more than 50 µM.

Consider `C=C(C)[C@@H]1CC[C@@](C)(O)[C@@H]2CC(=O)[C@H](C)[C@H]2C1` [Compound 4, (1R,4S,5S,7R,10R)-3-oxo-11(13)-en-10-hydroxyguaiene], for which the IC50 in series [1] (setting [4]) came to 72.9 µM. The same compound showed a CC50 in series [3] of more than 50 µM.

Take `C[C@@H]1[C@@H]2C[C@H]([C@](C)(O)CO)CC[C@@](C)(O)[C@@H]2C[C@@H]1O` [Compound 12, (1R,3S,4R,5S,7R,10R,11S)-guaiane-3,10,11,12-tetraol]: the IC50 in series [1] (setting [4]) was 122 µM. In addition, in series [3], the CC50 is more than 50 µM.

Regarding `C=C(C)C1CCC(C)(O)C2CCC(C)C2C1` [Compound 2, (1R,4S,5S,7R,10R)-11(13)-en-10-hydroxyguaiene], the IC50 in series [1] (setting [4]) was 103 µM. Besides, the CC50 in series [3] is more than 50 µM.

For the origin of these results see publication PMC5765142, “New anti-inflammatory guaianes from the Atlantic hydrotherm-derived fungus Graphostroma sp. MCCC 3A00421” (Scientific Reports, 2018).
